In ChEMBL document CHEMBL4622847, “Synthesis and structure-activity relationships of thieno[2,3-d]pyrimidines as atypical protein kinase C inhibitors to control retinal vascular permeability and cytokine-induced edema” (Bioorg Med Chem, 2020):
pEC50, pIC50: −log10 of the molar value. Each block holds one compound with its values, some of them ahead of it. Activity calls are given as the source filed them. The calls are words filed in the database; no cut-off is given here.

Tests used:
[1] = Inhibition of VEGF-induced permeability in BREC cells incubated for 2 hrs; assay type: functional, cell-based, Bos taurus; conditions: for pEC50: read-out: EC50
[2] = Cytotoxicity against […] BREC cells at 0.03 to 1 uM; assay type: cell-based
Bos taurus [3] = organism: Bos taurus; assay: Inhibition of VEGF-induced permeability in BREC cells at 1 uM incubated for 2 hrs; assay type: functional, cell-based
Bos taurus [4] = organism: Bos taurus; assay: Inhibition of VEGF-induced permeability in BREC cells at 0.01 uM incubated for 2 hrs; assay type: functional, cell-based
[5] = target: T1, Protein kinase C zeta type (Homo sapiens, UniProt Q05513); assay: Inhibition of recombinant full-length human aPKCzeta using CREBtide as substrate incubated for 3 hrs in presence of ATP by Kinase Glo luminescent assay
T1 sequence (Q05513 whole entry): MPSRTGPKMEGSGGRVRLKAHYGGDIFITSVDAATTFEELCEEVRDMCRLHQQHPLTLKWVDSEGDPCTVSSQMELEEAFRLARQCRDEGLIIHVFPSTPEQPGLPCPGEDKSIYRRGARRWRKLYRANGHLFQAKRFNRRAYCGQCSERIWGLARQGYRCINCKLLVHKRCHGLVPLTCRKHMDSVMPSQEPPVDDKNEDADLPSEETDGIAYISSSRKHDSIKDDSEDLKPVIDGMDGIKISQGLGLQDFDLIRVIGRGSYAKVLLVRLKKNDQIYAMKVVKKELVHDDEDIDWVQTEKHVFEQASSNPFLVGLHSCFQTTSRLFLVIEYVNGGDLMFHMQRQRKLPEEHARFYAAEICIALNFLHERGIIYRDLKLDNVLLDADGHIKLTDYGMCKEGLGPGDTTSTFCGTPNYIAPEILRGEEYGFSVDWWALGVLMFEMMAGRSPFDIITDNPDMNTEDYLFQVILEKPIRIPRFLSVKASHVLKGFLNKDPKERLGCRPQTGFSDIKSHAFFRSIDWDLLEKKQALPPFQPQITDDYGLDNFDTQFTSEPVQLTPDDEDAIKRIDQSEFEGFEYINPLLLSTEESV

[6] = Drug level in iv dosed CD-1 mouse eye after 24 hrs by LCMS analysis; assay type: ADME, organism-based; conditions: read-out: Drug uptake
[7] = Inhibition of TNFalpha-induced NFkappaB activation in HEK293 cells preincubated for 2 hrs followed by TNFalpha stimulation by luciferase assay; assay type: cell-based; conditions: Homo sapiens
[8] = Cmax in CD1 mouse plasma at 20 mg/kg, po measured up to 24 hrs; assay type: ADME, organism-based; set-up: dose 20 mg/kg, route oral; conditions: in vivo
Rattus norvegicus [9] = assay: Inhibition of VEGF/TNFalpha-induced retinal vascular permeability in Long-Evans rat at 3 uM administered intravitreally followed by FITC-BSA, iv injection 3 hrs post drug dose and measured after 2 hrs by spectrophotometric method relative to control; assay type: functional
[10] = Tmax in CD1 mouse plasma at 20 mg/kg, po measured up to 24 hrs; assay type: ADME, organism-based; conditions: in vivo
[11] = AUC in CD1 mouse plasma at 10 mg/kg, iv measured up to 24 hrs; assay type: ADME, organism-based; set-up: dose 10 mg/kg, time < 24 hr, route intravenous; conditions: in vivo
HEK293 [12] = assay: Cytotoxicity against HEK293 cells assessed as effect on cell survival by WST-1 assay; assay type: cell-based; conditions: human
[13] = Ratio of drug level in CD-1 mouse eye to plasma at 10 mg/kg, iv after 4 hrs by LCMS analysis; assay type: ADME, organism-based
[14] = Inhibition of PKA (unknown origin) by radiometric kinase assay; set-up: species or system Homo sapiens
Rattus norvegicus [15] = assay: Effect on retinal function in overnight dark-adapted Long-Evans rat assessed as A-wave or B-wave amplitude at 3 uM administered intravitreally 3 to 5 hrs prior to exposure to a 0.1 cd.s/m2 to 10 cd.s/m2 test flash by electroretinography; assay type: ADME, organism-based; conditions: in vivo, topical_or_ocular
[16] = target: Protein kinase C beta type (Homo sapiens) (UniProt P05771); assay: Inhibition of PKCbeta1 (unknown origin) at 5 uM by radiometric kinase assay
[17] = target: T1, Protein kinase C zeta type; assay: Inhibition of recombinant full-length human aPKCzeta in presence of ATP at Km concentration by radiometric assay
[18] = Ratio of drug level in CD-1 mouse eye to brain at 20 mg/kg, po after 4 hrs by LCMS analysis; assay type: ADME, organism-based; conditions: in vivo
Bos taurus [19] = organism: Bos taurus; assay: Inhibition of VEGF-induced permeability in BREC cells at 0.01 to 1.0 uM incubated for 2 hrs; assay type: functional, cell-based
Homo sapiens [20] = organism: Homo sapiens; assay: Selectivity ratio of IC50 for inhibition of recombinant full-length human aPKCzeta using CREBtide as substrate to IC50 for of recombinant full-length human aPKCiota using CREBtide as substrate
[21] = target: T2, Protein kinase C iota type (Homo sapiens, UniProt P41743); assay: Inhibition of recombinant full-length human aPKCiota in presence of ATP at Km concentration by radiometric assay
T2 sequence (P41743 whole entry): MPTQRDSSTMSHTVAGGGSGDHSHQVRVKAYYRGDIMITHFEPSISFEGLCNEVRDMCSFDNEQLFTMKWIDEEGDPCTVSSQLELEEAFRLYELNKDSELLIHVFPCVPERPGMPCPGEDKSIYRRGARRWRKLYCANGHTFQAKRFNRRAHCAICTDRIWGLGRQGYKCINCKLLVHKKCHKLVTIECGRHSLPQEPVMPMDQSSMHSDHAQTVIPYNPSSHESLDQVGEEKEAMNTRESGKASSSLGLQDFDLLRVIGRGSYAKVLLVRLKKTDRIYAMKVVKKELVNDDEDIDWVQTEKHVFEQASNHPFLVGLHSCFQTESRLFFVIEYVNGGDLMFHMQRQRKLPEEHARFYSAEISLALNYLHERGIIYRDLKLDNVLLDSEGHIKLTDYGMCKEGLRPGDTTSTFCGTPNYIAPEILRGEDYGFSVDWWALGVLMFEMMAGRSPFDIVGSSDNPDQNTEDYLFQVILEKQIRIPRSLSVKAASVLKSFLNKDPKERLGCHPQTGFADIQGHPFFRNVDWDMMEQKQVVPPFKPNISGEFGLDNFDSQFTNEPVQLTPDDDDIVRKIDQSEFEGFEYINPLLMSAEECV

Homo sapiens [22] = organism: Homo sapiens; assay: Inhibition of PKA (unknown origin) at 5 uM by radiometric kinase assay
[23] = AUC in CD1 mouse plasma at 20 mg/kg, po measured up to 24 hrs; assay type: ADME, organism-based; set-up: time < 24 hr, dose 20 mg/kg, route oral; conditions: in vivo
[24] = Terminal elimination half life in CD1 mouse plasma at 20 mg/kg, po and measured up to 24 hrs; assay type: ADME, organism-based; conditions: in vivo
[25] = Oral bioavailability in CD1 mouse plasma at 20 mg/kg measured up to 24 hrs; assay type: ADME, organism-based; conditions: in vivo
[26] = Ratio of drug level in CD-1 mouse brain to plasma at 10 mg/kg, iv after 4 hrs by LCMS analysis; assay type: ADME, organism-based
[27] = Microsomal stability in CD1 mouse liver microsomes assessed as half life at 1 uM in presence of beta-NADPH measured upto 60 mins by LC-MS/MS analysis; assay type: ADME, Microsome; conditions: 1 h
[28] = target: Rho-associated protein kinase 2 (Homo sapiens) (UniProt O75116); assay: Inhibition of ROCK2 (unknown origin) at 5 uM by radiometric kinase assay
HEK293 [29] = assay: Inhibition of TNFalpha-induced NFkappaB activation in HEK293 cells at 2.5 to 10 uM preincubated for 2 hrs followed by TNFalpha stimulation by luciferase assay; assay type: cell-based; conditions: Homo sapiens
[30] = target: T2, Protein kinase C iota type; assay: Inhibition of recombinant full-length human aPKCiota using CREBtide as substrate incubated for 3 hrs in presence of ATP by kinase Glo luminescent assay
[31] = Ratio of drug level in CD-1 mouse eye to brain at 10 mg/kg, iv after 4 hrs by LCMS analysis; assay type: ADME, organism-based; conditions: in vivo
[32] = Terminal elimination half life in CD1 mouse plasma at 10 mg/kg, iv measured up to 24 hrs; assay type: ADME, organism-based; conditions: in vivo
Rattus norvegicus [33] = assay: Inhibition of VEGF/TNFalpha-induced retinal vascular permeability in Long-Evans rat at 1 or 3 uM administered intravitreally followed by FITC-BSA, iv injection 3 hrs post drug dose and measured after 2 hrs by spectrophotometric method; assay type: functional, organism-based
Bos taurus [34] = organism: Bos taurus; assay: Inhibition of VEGF-induced permeability in BREC cells in presence of Y-27632; assay type: functional, cell-based
Bos taurus [35] = organism: Bos taurus; assay: Inhibition of VEGF-induced permeability in BREC cells at 3 uM incubated for 2 hrs; assay type: functional, cell-based
[36] = target: T1, Protein kinase C zeta type; assay: Inhibition of recombinant full-length human aPKCzeta expressed in Sf21 insect cells using 5FAM-ERMRPRKRQGSVRRRV-NH2 as substrate in presence of ATP after 60 mins by IMAP fluorescence polarization analysis

Sequence of Rho-associated protein kinase 2 (Homo sapiens) (O75116 whole entry, looked up): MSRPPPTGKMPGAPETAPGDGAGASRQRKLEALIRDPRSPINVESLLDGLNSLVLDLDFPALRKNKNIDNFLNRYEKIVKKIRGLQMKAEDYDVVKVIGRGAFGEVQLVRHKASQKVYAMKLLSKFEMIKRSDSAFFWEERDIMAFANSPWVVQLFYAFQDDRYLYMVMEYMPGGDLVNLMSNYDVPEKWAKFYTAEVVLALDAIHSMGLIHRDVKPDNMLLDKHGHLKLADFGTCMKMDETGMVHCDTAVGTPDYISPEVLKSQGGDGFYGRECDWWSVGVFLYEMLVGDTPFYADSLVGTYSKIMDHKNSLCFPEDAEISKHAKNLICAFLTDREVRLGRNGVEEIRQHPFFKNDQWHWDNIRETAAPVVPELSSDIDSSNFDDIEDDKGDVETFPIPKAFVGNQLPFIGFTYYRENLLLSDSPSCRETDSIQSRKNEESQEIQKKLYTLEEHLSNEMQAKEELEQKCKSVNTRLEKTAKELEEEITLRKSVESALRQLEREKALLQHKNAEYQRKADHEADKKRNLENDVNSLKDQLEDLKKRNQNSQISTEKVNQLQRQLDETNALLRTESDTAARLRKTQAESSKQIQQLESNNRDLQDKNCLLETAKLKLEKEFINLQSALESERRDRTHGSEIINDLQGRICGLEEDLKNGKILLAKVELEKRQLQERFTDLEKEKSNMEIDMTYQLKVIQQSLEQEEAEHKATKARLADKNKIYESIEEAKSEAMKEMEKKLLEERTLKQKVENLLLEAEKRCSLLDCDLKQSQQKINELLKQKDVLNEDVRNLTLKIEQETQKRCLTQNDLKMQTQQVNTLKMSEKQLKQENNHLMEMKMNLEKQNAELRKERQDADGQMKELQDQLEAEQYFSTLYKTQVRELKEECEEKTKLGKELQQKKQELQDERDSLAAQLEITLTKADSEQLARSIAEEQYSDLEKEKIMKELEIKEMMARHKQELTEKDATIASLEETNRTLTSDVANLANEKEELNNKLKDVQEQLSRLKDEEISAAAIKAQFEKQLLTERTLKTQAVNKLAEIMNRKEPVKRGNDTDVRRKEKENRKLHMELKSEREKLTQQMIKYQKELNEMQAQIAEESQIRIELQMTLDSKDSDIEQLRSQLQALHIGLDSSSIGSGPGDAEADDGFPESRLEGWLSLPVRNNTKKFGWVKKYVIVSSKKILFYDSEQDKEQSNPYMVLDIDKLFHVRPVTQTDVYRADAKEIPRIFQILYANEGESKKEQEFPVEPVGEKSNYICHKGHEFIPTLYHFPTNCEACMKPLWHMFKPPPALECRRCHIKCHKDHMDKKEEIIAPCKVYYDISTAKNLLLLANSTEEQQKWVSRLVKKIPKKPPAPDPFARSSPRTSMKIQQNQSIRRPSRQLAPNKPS
Sequence of Protein kinase C beta type (Homo sapiens) (P05771 2-671 limits assumed): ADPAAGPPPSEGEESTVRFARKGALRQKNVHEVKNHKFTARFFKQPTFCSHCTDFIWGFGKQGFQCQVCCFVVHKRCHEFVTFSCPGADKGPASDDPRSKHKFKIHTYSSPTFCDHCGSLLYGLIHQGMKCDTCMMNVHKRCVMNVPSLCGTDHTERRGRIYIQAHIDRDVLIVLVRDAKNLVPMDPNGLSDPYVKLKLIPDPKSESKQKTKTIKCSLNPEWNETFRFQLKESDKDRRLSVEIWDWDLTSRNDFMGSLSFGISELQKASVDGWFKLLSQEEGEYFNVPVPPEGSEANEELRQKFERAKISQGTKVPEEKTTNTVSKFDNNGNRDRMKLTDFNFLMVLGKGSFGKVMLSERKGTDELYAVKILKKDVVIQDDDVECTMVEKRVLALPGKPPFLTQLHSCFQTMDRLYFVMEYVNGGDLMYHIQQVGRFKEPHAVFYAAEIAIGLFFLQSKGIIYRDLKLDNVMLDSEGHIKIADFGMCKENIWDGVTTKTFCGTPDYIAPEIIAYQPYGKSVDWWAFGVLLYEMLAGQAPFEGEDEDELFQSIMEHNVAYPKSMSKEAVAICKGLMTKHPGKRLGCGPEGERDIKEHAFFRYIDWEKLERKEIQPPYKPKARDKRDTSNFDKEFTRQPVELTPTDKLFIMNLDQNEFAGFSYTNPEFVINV

- pEC50 [1]: 6.52
SMILES: CN(C)C1CCN(c2nc(-c3ccncc3)nc3sc4c(c23)CCCC4)CC1

- EC50 [1]: Not Active
SMILES: c1cc(-c2nc(N3CCNCC3)c3c4c(sc3n2)CCCC4)ccn1
- Activity [2]: Toxic
- inhibition (Bos taurus [3]): inactive
- inhibition (Bos taurus [4]): inactive

- EC50 [1]: Not Active
- pIC50 [5]: 5.94
SMILES: c1cc(-c2cc(N3CCNCC3)c3c4c(sc3n2)CCCC4)ccn1
- inhibition (Bos taurus [3]): inactive

- pIC50 [5]: 4.96
SMILES: c1cc(-c2nc(NCCN3CCNCC3)c3c4c(sc3n2)CCCC4)ccn1

- pIC50 [5]: 6.38
SMILES: NCCN1CCN(c2nc(-c3ccncc3)nc3sc4c(c23)CCCC4)CC1

- pEC50 [1]: 6.52
SMILES: NC1CCN(c2nc(-c3ccncc3)nc3sc4c(c23)CCCC4)CC1

- concentration at 24 h [6]: 375 ng/g
- pEC50 [7]: 5.18
- Cmax [8]: 488 ng/mL
- Tmax [10]: 7 h
- AUC [11]: 4373 ng·h/mL
- pEC50 [1]: 7.15
- Kp at 4 h [13]: 2.9
- pIC50 [14]: 6.30
- inhibition [16]: Active
- pIC50 [17]: 5.79
- Ratio [18]: 2
- Ratio IC50 (Homo sapiens [20]): 7.5
- pIC50 [21]: 5.39
- inhibition (Homo sapiens [22]): Active
- AUC [23]: 6762 ng·h/mL
- beta t1/2 [24]: 7.83 h
- F [25]: 81.7%
- Ratio [26]: 2.3
- t1/2 [27]: > 1 h
- inhibition [28]: Active
- pIC50 [30]: 7.15
- Ratio [31]: 1.3
- beta t1/2 [32]: 2.77 h
- pIC50 [5]: 6.28
SMILES: NCC1CCN(c2nc(-c3ccncc3)nc3sc4c(c23)CCCC4)CC1
- inhibition (INH) (Rattus norvegicus [9]): 100%
- Activity (HEK293 [12]): Non-Toxic
- Activity (Rattus norvegicus [15]): Non-Toxic
- inhibition (Bos taurus [19]): Active
- inhibition (HEK293 [29]): Active
- inhibition (Rattus norvegicus [33]): Active
- inhibition (Bos taurus [34]): Active

- EC50 [1]: Not Active
- pIC50 [5]: 5.62
SMILES: OC1CCN(c2nc(-c3ccncc3)nc3sc4c(c23)CCCC4)CC1
- inhibition (Bos taurus [35]): inactive

- pIC50 [36]: 5.43
SMILES: CN1CCN(c2nc(-c3ccncc3)nc3sc4c(c23)CCCC4)CC1
